In EP3960748A1, “COMPOSITION FOR THE TREATMENT OF THE SIDE EFFECTS OF RADIOTHERAPY AND/OR CHEMOTHERAPY” (Fundación Profesor Novoa Santos, priority 2019, dated 2020):

Experiments:
Format in all cases: cell-based
[1] = tested on: p21; assay: Gene expression analysis (qPCR) of p21; conditions: Fig. 8; 72 hours; oleuropein 10 µM, BIRB796 2.5 µM; 55 Grays; normalized against HPRT1
From the text: (§1) Skin tissue biopsies from female patients of A Coruña University Hospital Complex - A Coruña Integrated Management Services (Complejo Hospitalario Universitario de A Coruña - Xerencia Xestión Integrada A Coruña (CHUAC-XXIAC)) were obtained from operations for the surgical removal of a benign pathology (fibroadenoma, samples consisting of untreated healthy skin) and from oncology interventions (samples consisting of skin subjected to radiotherapy and chemotherapy). Signed informed consent was received from each of the patients (2015/029, C.0003333, 2016/077). To isolate primary fibroblast from these samples, hypodermal fat was removed with the aid of a scalpel, and the epidermis was segmented into fragments of about 1x1 cm (explants). Lines were made with a scalpel on a 100 cm^2 adherent Petri dish creating a grid, and each of the explants was placed in the resulting intersections with the epidermis facing up and the dermis in contact with the dish. […] The working concentrations of said compounds were determined by means of literature review and cell viability assays (MTT). […]
(§2) For RNA extraction from the different cell types, TRI Reagent (MRC) was used following the manufacturer's instructions. […] The amount and quality of the obtained RNA was quantified in Nanodrop ND-1000. […]

[2] = tested on: MMP-3; assay: Gene expression analysis (qPCR) of MMP-3; conditions: Fig. 5B; 72 hours, BIRB796 2.5 µM; 55 Grays; normalized against HPRT1, compared to non-radiated healthy fibroblast control
From the text: as §1, §2

[3] = tested on: p21; assay: Western blot of p21 in radiated fibroblasts; conditions: Fig. 7; post-radiation treatment for 72 hours; oleuropein 10 µM, BIRB796 2.5 µM; 55 Grays; relative to tubulin
From the text: as §1

[4] = tested on: p53; assay: Western blot of p53 in radiated fibroblasts; conditions: Fig. 7; post-radiation treatment for 72 hours; oleuropein 10 µM, BIRB796 2.5 µM; 55 Grays; relative to tubulin
From the text: as §1

[5] = tested on: IL-6; assay: Gene expression analysis (qPCR) of IL-6; conditions: Fig. 5C; 72 hours, BIRB796 2.5 µM with or without oleuropein; 55 Grays; normalized against HPRT1
From the text: as §1, §2

[6] = tested on: IL-1β; assay: Gene expression analysis (qPCR) of IL-1β; conditions: Fig. 5C; 72 hours, BIRB796 2.5 µM with or without oleuropein; 55 Grays; normalized against HPRT1
From the text: as §1, §2

Cc1ccc(-n2nc(C(C)(C)C)cc2NC(=O)Nc2ccc(OCCN3CCOCC3)c3ccccc23)cc1 [BIRB796, doramapimod] was tested, and the “p21 mRNA level” value [1] was “reduces the gene expression of senescence factor p21”, the “MMP-3 mRNA levels” value [2] was “protects against the synthesis of SASP components such as MMP-3” and the “protein levels of p21” value [3] was “effectively reduced protein levels of both factors”. For the same compound, the “protein levels of p53” value [4] was “effectively reduced protein levels of both factors”, the “IL-6 mRNA levels” value [5] was “decreases synthesis of the inflammatory component” and the “IL-1β mRNA levels” value [6] was “decreases synthesis of the inflammatory component”.
